# US7906514B1, “Animal model and compounds identified via this model for treatment of chronic pain” (Trustees of Dartmouth College, priority 1999, dated 2011)
# Columns and labels:
# [1] = system: rat model for lower back pain (L5 spinal root loosely ligated with chromic gut); test: Gait disturbance and hind paw inversion testing after L5 spinal root injury; assay type: in vivo; settings: phase I
# Text: The first phase of the study investigated three combinations of treatments: 1) Group A—methotrexate administration locally (intrathecally) to the surgical area immediately following surgery, followed by additional methotrexate administration locally at days 2 and 4 post-surgery; 2) Group B—saline administration locally to the surgical area immediately following surgery and at days 2 and 4 post-surgery; and 3) Group C—sham-operated animals that received methotrexate at the same time points. In all animals, gait disturbance and mechanical allodynia were assessed until animals were euthanized 7 days after surgery. […]
# (§1) Male Holtzman rats (200-250 g) were used. All surgical procedures were performed under inhalation anesthesia (induced at 4% and maintained at 2% halothane in 100% O2). Spinal root, dorsal root ganglia, and the adjacent dura mater on the left side at L5 were carefully exposed by hemilaminectomy using a surgical microscope. Five 0.3 cm pieces of 4-0 chromic gut ligature were laid adjacent to the root and secured by two loose ligatures of 5-0 chromic gut. The muscle layers and incision were closed with 3-0 silk suture and staples, respectively.
# For phase I, three combinations of treatments were investigated. Methotrexate was reconstituted to 10 mg/ml in saline and pH adjusted to 7.4. Group A represented root injury plus methotrexate treatment. […]
# [2] = system: rat model for lower back pain (L5 spinal root loosely ligated with chromic gut); test: Gross pathological inspection of injured nerve roots following euthanasia; assay type: in vivo; settings: methotrexate-treated groups (A, D and F) compared to saline-treated groups (B and E)
# Procedure: In all groups except the sham-operated animals (Group C), the treated nerve roots were encapsulated with dense granulation tissue and fibrous adhesions.
# as §1
# For phase I, three combinations of treatments were investigated. Methotrexate was reconstituted to 10 mg/ml in saline and pH adjusted to 7.4. Group A represented root injury plus methotrexate treatment. Immediately following surgery and prior to incision closure, Group A rats received 1 mg/kg of methotrexate (volume 100 ul/kg) by injecting through a PE-10 catheter through an incision in the exposed dura mater to a position 3 cm central to the incision. […]
# Group F represented methotrexate plus saline treatment. […] Gait disturbance and mechanical allodynia were also assessed in these animals at days 2, 4, 7, 9, 11 and 14 (day of euthanization).
# [3] = dose without acute neurotoxic effects; Morris et al. 1992; cited from earlier work
# [4] = system: rat model for lower back pain (L5 spinal root loosely ligated with chromic gut); test: Mechanical sensitivity (allodynia) testing with von Frey filaments after L5 spinal root injury; assay type: in vivo
# Text: The first phase of the study investigated three combinations of treatments: 1) Group A—methotrexate administration locally (intrathecally) to the surgical area immediately following surgery, followed by additional methotrexate administration locally at days 2 and 4 post-surgery; 2) Group B—saline administration locally to the surgical area immediately following surgery and at days 2 and 4 post-surgery; and 3) Group C—sham-operated animals that received methotrexate at the same time points. In all animals, gait disturbance and mechanical allodynia were assessed until animals were euthanized 7 days after surgery.
# In the second phase of the study, animals were assessed out to day 14 post-surgery and given additional treatments as follows: 1) Group D—surgically prepared, saline treated rats were then given methotrexate locally during the second week of the study on days 7, 9, and 11 post-surgery; 2) Group E—surgically prepared, saline treated rats were then given saline locally during the second week on days 7, 9, and 11 post-surgery; and 3) Group F—surgically prepared, methotrexate treated rats were then given saline during the second week on days 7, 9, and 11 post-surgery. Gait disturbance and mechanical allodynia were assessed before surgery and at days 2, 4, 7, 9, 11, and 14 until euthanization.
# as §1
# For phase I, three combinations of treatments were investigated. Methotrexate was reconstituted to 10 mg/ml in saline and pH adjusted to 7.4. Group A represented root injury plus methotrexate treatment. Immediately following surgery and prior to incision closure, Group A rats received 1 mg/kg of methotrexate (volume 100 ul/kg) by injecting through a PE-10 catheter through an incision in the exposed dura mater to a position 3 cm central to the incision. The PE-10 catheter was pulled out and the same dose and volume of methotrexate (1 mg/kg) was administered around the injured nerve roots (total dose 2 mg/kg). The wound was closed. On days 2 and 4 post-surgery, under inhalation anesthesia, methotrexate was again administered by opening the surgical wound and repeating delivery of methotrexate as before.
# Group C animals represented sham-operated plus methotrexate treatment. In these animals, the L5 nerve roots were exposed but not injured. Methotrexate was administered using the same dose, protocol, and time points as Group A.
# For phase II of the study, the protocol was extended to day 14 with the surgery, delivery method, volume and doses being identical to those of the phase I study. Rats were divided into 3 groups. Group D represented saline plus methotrexate treatment. Saline was administered at the time of surgery and at days 2 and 4 post-surgery. Methotrexate was administered in the second week at days 7, 9 and 11 post-surgery.
# Group F represented methotrexate plus saline treatment. In these rats, methotrexate was administered during surgery and at days 2 and 4 post-surgery. Saline was then administered on days 7, 9, and 11 post-surgery. Gait disturbance and mechanical allodynia were also assessed in these animals at days 2, 4, 7, 9, 11 and 14 (day of euthanization).
# Animals were tested for 3 days pre-operatively to acclimate to the testing apparatus and the experimenter, and to obtain baseline values. All testing was performed by experimenters blinded to the treatments.
# [5] = system: OX-42 and GFAP (glial fibrillary acidic protein); test: Immunohistochemical analysis of spinal glial activation; assay type: in vivo, rat; settings: methotrexate-treated groups vs saline-treated groups; L5 spinal cord sections
# Procedure: All animals were perfusion fixed for immunohistochemistry. Under deep anesthesia (sodium pentobarbital, 50 mg/kg intraperitoneally) rats were euthanized by transcardiac perfusion. Rats were then perfused with 300 ml phosphate buffered saline (PBS) followed by 500 ml 4% paraformaldehyde in 0.1 M PBS. Following perfusion and laminectomy, the lesioned L5 roots were verified and traced to their site of entry into the spinal cord. Appropriate L5 spinal cord segments were harvested and post fixed for 4 hours in fixative and then cryoprotected 2-3 days in 30% sucrose/PBS at 4° C. The segments were then freeze-mounted in OCT embedding medium on cork blocks for cryostat sectioning.
# Optimal dilutions and incubation time periods for each antibody and lot were determined prior to the study. Immunohistochemistry was performed with the avidin-biotin technique on free-floating 20 μm sections. Elimination of the primary antibody was performed in each run as a negative control. Monoclonal antibody OX-42 (labeling the complement receptor-3, CDllb) was used as a microglial marker at a dilution of […]. A rabbit polyclonal antibody to glial fibrillary protein (anti-GFAP, DAKO, Carpintra, Calif.) was used as an astrocytic marker at a dilution of 1:20,000. Five or more sections per animal were prepared from the L5 segments in each run. […]
structure (smiles),measurement,setting,value
"CN(Cc1cnc2nc(N)nc(N)c2n1)c1ccc(C(=O)N[C@@H](CCC(=O)O)C(=O)O)cc1 [methotrexate, Methotrexate]",postoperative changes in hind paw inversion or gait disturbance,"[1]; Group A (injury+methotrexate, 1 mg/kg intrathecal + 1 mg/kg perineural at surgery, days 2 and 4) vs Group B (saline)",no significant difference
same,hind paw inversion or gait disturbance,"[1]; Group C, sham-operated + methotrexate at surgery, days 2 and 4",did not demonstrate any hind paw inversion or gait disturbance
same,granulation and adhesion around the injured nerve roots,[2],markedly decreased
same,administered dose (1 mg/kg) as fraction of the maximally tolerated dose for rats,[3],one quarter
same,"mechanical allodynia, overall conclusion","[4]; lower back pain model with radiculopathy, local administration",significantly attenuates
same,mechanical allodynia,"[4]; phase I, Group A (injury+methotrexate at surgery, days 2 and 4), toward baseline after peak at day 2, to day 7",significantly reduced
same,mechanical allodynia response after surgery,"[4]; phase I, Group C (sham-operated+methotrexate)",minimal (minimal (0-5))
same,mechanical allodynia during the second week,"[4]; phase II, Group D (saline in week 1, methotrexate on days 7, 9, 11), existing allodynia, Group E (saline) persisted",significantly decreased
same,allodynia at day 7 post-surgery,"[4]; phase II, Group F (methotrexate at surgery, days 2 and 4) compared to Groups D and E",significantly attenuated
same,allodynic response during the second week,"[4]; phase II, Group F compared to Group E",significantly lower
same,"level of glial activation (OX-42, GFAP)",[5],significant difference
